Residues, ends and D or L forms follow the SMILES beside them. *: point of attachment. X1 = Nc1nn(CC(=O)*)c2nnc(-c3c(-c4ccccc4)nn4ccccc34)cc12; PEG4 = NCCOCCOCCOCCOCCC(=O)O A value given as a limit tells only on which side of the number the result lay.

What is called IC50 is the concentration that inhibits the measured activity by half. As a reminder, the Kd is the concentration at which binding is half-saturated.

For test [1], the target named is T1, Mitogen-activated protein kinase 1 (Homo sapiens, UniProt P28482). In words: Inhibition of phosphorylated ERK2 (unknown origin) using myelin basic protein as substrate after 2 hrs in presence of ATP by ADP-glo assay. In general terms: In ADP-Glo the light output rises with the ADP produced.
T1 sequence (P28482 whole entry, the tested form may be a part): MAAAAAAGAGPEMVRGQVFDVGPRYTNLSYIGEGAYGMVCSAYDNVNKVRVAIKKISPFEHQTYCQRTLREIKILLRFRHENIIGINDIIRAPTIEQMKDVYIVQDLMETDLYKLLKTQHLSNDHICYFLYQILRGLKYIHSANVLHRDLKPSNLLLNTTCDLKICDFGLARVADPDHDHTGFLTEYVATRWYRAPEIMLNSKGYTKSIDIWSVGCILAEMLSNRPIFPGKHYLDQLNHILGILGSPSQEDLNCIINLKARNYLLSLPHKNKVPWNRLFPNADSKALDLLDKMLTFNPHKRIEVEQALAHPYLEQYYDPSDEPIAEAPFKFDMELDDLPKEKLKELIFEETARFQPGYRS
Test [2] deals with Mitogen-activated protein kinase 8 (Homo sapiens) (UniProt P45983). In words: Inhibition of full length wild type human JNK1 (M1 to Q384 residues) expressed in mammalian expression system assessed as residual activity at 2 uM by KINOMEscan assay.
Mitogen-activated protein kinase 8 (Homo sapiens), sequence (P45983 whole entry, the tested form may be a part): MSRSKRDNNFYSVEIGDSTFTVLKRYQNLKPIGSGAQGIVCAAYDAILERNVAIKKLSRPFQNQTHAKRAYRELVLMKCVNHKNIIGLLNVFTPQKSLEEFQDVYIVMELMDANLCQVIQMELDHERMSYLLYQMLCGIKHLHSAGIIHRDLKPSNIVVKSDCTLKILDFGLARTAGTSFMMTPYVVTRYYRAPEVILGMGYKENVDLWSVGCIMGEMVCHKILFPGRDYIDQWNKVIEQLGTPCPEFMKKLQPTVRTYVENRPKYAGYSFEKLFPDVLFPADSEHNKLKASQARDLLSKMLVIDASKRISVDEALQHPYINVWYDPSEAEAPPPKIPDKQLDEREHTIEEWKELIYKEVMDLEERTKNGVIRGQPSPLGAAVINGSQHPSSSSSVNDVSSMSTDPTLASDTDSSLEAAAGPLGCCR
Test [3] concerns the target Mitogen-activated protein kinase 3 (Homo sapiens) (UniProt P27361). In words: Inhibition of full length wild type human ERK1 (M1 to P379 residues) expressed in bacterial expression system assessed as residual activity at 2 uM by KINOMEscan assay.
The target in test [4] is Mitogen-activated protein kinase 9 (Homo sapiens) (UniProt P45984). In words: Inhibition of full length wild type human JNK2 (M1 to Q382 residues) expressed in mammalian expression system assessed as residual activity at 2 uM by KINOMEscan assay.
Mitogen-activated protein kinase 9 (Homo sapiens), sequence (P45984 whole entry, looked up, the tested form may be a part): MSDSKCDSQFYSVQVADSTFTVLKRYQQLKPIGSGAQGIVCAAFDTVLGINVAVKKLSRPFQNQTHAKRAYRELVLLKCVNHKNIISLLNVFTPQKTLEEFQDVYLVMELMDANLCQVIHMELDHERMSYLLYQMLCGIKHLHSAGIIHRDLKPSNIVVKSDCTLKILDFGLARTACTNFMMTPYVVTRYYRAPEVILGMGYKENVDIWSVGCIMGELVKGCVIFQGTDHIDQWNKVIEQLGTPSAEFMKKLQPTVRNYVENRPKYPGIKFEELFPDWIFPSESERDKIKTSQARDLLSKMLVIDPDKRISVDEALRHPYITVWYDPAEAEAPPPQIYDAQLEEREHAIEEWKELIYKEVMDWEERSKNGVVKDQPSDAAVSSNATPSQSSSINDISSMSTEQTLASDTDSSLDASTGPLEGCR
Test [5] deals with Mitogen-activated protein kinase 14 (Homo sapiens) (UniProt Q16539). In words: Inhibition of full length wild type human p38alpha (M1 to S360 residues) expressed in bacterial expression system assessed as residual activity at 2 uM by KINOMEscan assay.
Mitogen-activated protein kinase 14 (Homo sapiens), sequence (Q16539 whole entry, the tested form may be a part): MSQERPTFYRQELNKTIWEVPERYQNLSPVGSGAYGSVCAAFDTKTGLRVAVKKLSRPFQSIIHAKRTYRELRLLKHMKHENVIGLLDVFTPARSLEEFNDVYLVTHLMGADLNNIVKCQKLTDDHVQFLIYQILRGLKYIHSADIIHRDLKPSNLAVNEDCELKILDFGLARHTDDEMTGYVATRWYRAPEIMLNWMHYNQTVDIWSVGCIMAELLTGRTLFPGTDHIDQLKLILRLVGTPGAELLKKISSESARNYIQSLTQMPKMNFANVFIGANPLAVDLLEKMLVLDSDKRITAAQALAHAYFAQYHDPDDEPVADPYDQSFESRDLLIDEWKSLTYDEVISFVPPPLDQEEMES
In test [6] the target is Mitogen-activated protein kinase 11 (Homo sapiens) (UniProt Q15759). In words: Inhibition of full length wild type human p38beta (M1 to Q364 residues) expressed in bacterial expression system assessed as residual activity at 2 uM by KINOMEscan assay.
Mitogen-activated protein kinase 11 (Homo sapiens), sequence (Q15759 whole entry, the tested form may be a part): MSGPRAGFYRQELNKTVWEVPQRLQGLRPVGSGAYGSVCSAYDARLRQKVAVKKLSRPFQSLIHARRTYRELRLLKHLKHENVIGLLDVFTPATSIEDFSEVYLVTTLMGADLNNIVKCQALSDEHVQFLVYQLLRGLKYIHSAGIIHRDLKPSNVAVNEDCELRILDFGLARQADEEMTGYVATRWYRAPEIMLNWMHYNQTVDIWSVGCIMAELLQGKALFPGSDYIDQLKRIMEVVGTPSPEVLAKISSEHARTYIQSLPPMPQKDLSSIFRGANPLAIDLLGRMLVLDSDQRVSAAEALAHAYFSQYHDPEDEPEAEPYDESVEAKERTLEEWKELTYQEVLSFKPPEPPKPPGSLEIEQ
Test [7] addresses Glycogen synthase kinase-3 beta (Homo sapiens, UniProt P49841). In words: Binding affinity to full length wild type human GSK3beta (M1 to T433 residues) expressed in mammalian expression system by KINOMEscan assay.
Test [8] has as its target Mitogen-activated protein kinase 10 (Homo sapiens) (UniProt P53779). In words: Inhibition of full length wild type human JNK3 (M1 to Q382 residues) expressed in mammalian expression system assessed as residual activity at 2 uM by KINOMEscan assay.
The target of test [9] is T1, Mitogen-activated protein kinase 1. In words: Binding affinity to non-phosphorylated full length N-terminal His6-tagged/SUMO-fused ERK2 (1 to 360 residues) (unknown origin) by isothermal titration method. (ITC needs no label: the signal is the heat of the interaction.)
The species named for a further test is Homo sapiens. In words: Selectivity ratio of compound affinity for C-terminal FLAG-tagged human ERK2 to C-terminal FLAG-tagged human p38 alpha.

Mitogen-activated protein kinase 10 (Homo sapiens), sequence (P53779 whole entry, the tested form may be a part): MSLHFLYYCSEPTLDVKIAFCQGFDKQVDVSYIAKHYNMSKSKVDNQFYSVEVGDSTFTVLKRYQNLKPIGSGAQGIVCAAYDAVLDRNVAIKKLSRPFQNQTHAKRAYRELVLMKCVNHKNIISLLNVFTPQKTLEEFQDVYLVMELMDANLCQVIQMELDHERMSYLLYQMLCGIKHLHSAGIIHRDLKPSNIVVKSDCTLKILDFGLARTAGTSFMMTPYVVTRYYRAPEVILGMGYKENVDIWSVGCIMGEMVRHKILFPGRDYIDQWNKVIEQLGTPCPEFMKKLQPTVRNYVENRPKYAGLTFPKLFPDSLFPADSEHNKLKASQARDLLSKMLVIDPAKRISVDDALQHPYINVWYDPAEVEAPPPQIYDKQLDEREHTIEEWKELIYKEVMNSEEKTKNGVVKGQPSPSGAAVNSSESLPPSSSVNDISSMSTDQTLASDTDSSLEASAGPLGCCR
Mitogen-activated protein kinase 3 (Homo sapiens), sequence (P27361 whole entry, the tested form may be a part): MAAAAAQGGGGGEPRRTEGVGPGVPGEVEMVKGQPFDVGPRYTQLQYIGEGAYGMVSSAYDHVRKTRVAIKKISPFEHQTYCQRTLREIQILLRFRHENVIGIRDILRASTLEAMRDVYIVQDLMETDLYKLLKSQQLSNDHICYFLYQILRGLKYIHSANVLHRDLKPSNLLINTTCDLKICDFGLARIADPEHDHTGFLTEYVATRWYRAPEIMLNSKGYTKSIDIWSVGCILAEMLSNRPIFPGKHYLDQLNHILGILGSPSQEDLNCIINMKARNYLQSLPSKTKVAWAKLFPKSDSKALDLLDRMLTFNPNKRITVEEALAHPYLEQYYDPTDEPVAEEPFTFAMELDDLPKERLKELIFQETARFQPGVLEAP
Glycogen synthase kinase-3 beta, sequence (P49841 whole entry, the tested form may be a part): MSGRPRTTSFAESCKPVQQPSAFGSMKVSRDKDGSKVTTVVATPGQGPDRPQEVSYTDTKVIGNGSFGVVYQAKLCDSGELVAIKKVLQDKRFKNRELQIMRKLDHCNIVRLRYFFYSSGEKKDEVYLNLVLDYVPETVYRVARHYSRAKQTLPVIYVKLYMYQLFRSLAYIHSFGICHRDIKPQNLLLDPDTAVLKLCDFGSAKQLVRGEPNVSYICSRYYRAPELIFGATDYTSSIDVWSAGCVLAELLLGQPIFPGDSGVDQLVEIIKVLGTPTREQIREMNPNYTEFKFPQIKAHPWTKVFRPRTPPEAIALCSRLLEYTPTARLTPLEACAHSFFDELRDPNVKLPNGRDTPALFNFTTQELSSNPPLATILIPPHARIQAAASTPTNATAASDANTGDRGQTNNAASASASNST

For `CC[C@H](C)[C@H](NC(=O)[C@H](CCC(=O)O)NC(=O)CCOCCOCCOCCOCCNC(=O)Cn1nc(N)c2cc(-c3c(-c4ccccc4)nn4ccccc34)nnc21)C(=O)N[C@H](C(=O)N[C@@H](CCCCN)C(=O)N[C@@H](CC(C)C)C(=O)N[C@@H](C)C(=O)N1CCC[C@H]1C(=O)N1CCC[C@H]1C(=O)N1CCC[C@H]1C(=O)N[C@@H](CCCCN)C(=O)N[C@@H](CCCCN)C(=O)N[C@@H](C)C(=O)O)[C@@H](C)CC` ({X1-PEG4}-EIIKLAPPPKKA-OH), in test [1], the half-maximal inhibitory concentration (IC50) stood at 700 nM.
For the compound `CC[C@H](C)[C@H](NC(=O)[C@H](CO)NC(=O)[C@H](CO)NC(=O)[C@H](CCC(=O)O)NC(=O)[C@@H](NC(=O)[C@@H]1CCCN1C(=O)[C@H](CCCCN)NC(=O)[C@H](CC(C)C)NC(=O)[C@H](CCC(N)=O)NC(=O)[C@H](C)NC(=O)[C@@H](NC(=O)CNC(=O)C(N)CCCCn1cc(CCCCNC(=O)CCCCCn2nc(N)c3cc(-c4c(-c5ccccc5)nn5ccccc45)nnc32)nn1)[C@@H](C)O)[C@@H](C)CC)C(=O)N[C@@H](CC(C)C)C(=O)N[C@@H](C)C(=O)N[C@@H](CCC(N)=O)C(=O)N[C@@H](CCCNC(=N)N)C(=O)N[C@@H](CCCNC(=N)N)C(=O)N[C@H](C(=O)N[C@@H](CCCNC(=N)N)C(=O)N[C@@H](CCCCN)C(=O)O)C(C)C` (some centres not stated), the Activity worked out at 0.1% in test [2]; 0.15% in [3]; 0.1% in [4]; 0.25% in [5]; 11% in test [6]; 0.1% in test [8]. The compound also registered a Kd in test [7] of more than 2500 nM.
Consider H-EIIKLAPPPKKA-OH, for which, in test [9], the Kd turned out to be 18000 nM. This counts as double-digit micromolar.
As for `Nc1nn(CC(=O)O)c2nnc(-c3c(-c4ccccc4)nn4ccccc34)cc12`, the IC50 in test [1] came to 12300 nM.
With H-PQLKPIESSILAQRRVRKLPSTTL-OH, the Selectivity ratio in the test listed under Homo sapiens was 20.
For the compound `CC[C@H](C)[C@H](NC(=O)[C@H](CO)NC(=O)[C@H](CO)NC(=O)[C@H](CCC(=O)O)NC(=O)[C@@H](NC(=O)[C@@H]1CCCN1C(=O)[C@H](CCCCN)NC(=O)[C@H](CC(C)C)NC(=O)[C@H](CCC(N)=O)NC(=O)[C@H](C)NC(=O)[C@@H](NC(=O)CCOCCOCCOCCOCCNC(=O)Cn1nc(N)c2cc(-c3c(-c4ccccc4)nn4ccccc34)nnc21)[C@@H](C)O)[C@@H](C)CC)C(=O)N[C@@H](CC(C)C)C(=O)N[C@@H](C)C(=O)N[C@@H](CCC(N)=O)C(=O)N[C@@H](CCCNC(=N)N)C(=O)N[C@@H](CCCNC(=N)N)C(=O)N[C@H](C(=O)N[C@@H](CCCNC(=N)N)C(=O)N[C@@H](CCCCN)C(=O)N[C@@H](CCCNC(=N)N)C(=O)N[C@@H](CCCCN)C(=O)N[C@@H](CCCCN)C(=O)N[C@@H](CCCNC(=N)N)C(=O)N[C@@H](CCCNC(=N)N)C(=O)N[C@@H](CCC(N)=O)C(=O)N[C@@H](CCCNC(=N)N)C(=O)N[C@@H](CCCNC(=N)N)C(=O)N[C@@H](CCCNC(=N)N)C(=O)O)C(C)C` ({X1-PEG4}-TAQLKPIESSILAQRRVRKRKKRRQRRR-OH), in test [1], the IC50 came to 14 nM.
